Measurements from ChEMBL document CHEMBL2074246, “Distinct groups of multidrug resistance modulating agents are distinguished by competition of P-glycoprotein-specific antibodies” (Biochem Biophys Res Commun, 2004).
One block for each molecule: values may come before it.

Legend:
Assay type in all cases: functional, cell-based
[1] = molecular target: T1, ATP-dependent translocase ABCB1 (Homo sapiens, UniProt P08183); assay: TP_TRANSPORTER: increase in Calcein-AM intracellular accumulation (Calcein-AM: 0.5 uM, Puromycin: 20 uM) in MDR1-expressing NIH-3T3 cells; conditions: mouse, nih3t3, 20 µM
T1 sequence (P08183 whole entry): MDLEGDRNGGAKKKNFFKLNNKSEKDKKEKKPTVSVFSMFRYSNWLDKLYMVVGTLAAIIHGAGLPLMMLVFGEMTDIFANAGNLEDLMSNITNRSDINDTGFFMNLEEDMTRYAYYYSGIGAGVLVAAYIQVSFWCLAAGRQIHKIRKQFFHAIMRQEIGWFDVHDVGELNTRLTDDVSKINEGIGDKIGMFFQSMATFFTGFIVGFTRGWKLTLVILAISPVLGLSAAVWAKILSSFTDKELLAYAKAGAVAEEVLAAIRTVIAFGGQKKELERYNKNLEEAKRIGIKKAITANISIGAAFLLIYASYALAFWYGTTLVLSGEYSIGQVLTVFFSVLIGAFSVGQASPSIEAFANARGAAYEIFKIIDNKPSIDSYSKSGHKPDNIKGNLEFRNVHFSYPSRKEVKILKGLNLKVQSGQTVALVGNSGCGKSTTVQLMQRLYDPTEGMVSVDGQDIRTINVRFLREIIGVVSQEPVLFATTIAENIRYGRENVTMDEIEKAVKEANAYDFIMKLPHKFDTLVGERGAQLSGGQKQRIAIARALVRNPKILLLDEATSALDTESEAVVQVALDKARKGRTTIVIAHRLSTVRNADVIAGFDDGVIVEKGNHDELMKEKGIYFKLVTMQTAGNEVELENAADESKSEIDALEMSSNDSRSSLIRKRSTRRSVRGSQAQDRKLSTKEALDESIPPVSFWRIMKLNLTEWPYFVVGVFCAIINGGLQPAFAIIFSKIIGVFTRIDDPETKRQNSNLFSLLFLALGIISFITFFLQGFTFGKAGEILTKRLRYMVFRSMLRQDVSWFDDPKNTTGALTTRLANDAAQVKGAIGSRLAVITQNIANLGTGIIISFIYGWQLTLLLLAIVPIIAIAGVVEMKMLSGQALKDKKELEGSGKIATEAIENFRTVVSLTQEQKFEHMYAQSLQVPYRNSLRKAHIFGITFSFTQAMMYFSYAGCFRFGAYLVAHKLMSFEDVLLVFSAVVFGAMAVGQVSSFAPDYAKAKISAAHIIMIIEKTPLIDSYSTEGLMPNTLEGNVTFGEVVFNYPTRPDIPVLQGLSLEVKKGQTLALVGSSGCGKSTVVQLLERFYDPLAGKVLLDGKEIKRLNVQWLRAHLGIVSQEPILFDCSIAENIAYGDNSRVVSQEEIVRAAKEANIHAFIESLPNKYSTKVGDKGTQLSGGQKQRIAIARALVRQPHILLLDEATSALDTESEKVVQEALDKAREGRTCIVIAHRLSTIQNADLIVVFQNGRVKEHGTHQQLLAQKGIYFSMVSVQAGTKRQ

[2] = molecular target: T1, ATP-dependent translocase ABCB1; assay: TP_TRANSPORTER: increase in Calcein-AM intracellular accumulation (Calcein-AM: 0.5 uM, Prazosin: 10 uM) in MDR1-expressing NIH-3T3 cells; conditions: mouse, nih3t3, 10 µM
[3] = molecular target: T1, ATP-dependent translocase ABCB1; assay: TP_TRANSPORTER: increase in Calcein-AM intracellular accumulation (Calcein-AM: 0.5 uM, Oligomycin: 5 uM) in MDR1-expressing NIH-3T3 cells; conditions: mouse, nih3t3, 5 µM
[4] = molecular target: T1, ATP-dependent translocase ABCB1; assay: TP_TRANSPORTER: increase in Calcein-AM intracellular accumulation (Calcein-AM: 0.5 uM, Vincristine: 200 uM) in MDR1-expressing NIH-3T3 cells; conditions: mouse, nih3t3, 200 µM
[5] = molecular target: T1, ATP-dependent translocase ABCB1; assay: TP_TRANSPORTER: increase in Calcein-AM intracellular accumulation (Calcein-AM: 0.5 uM, Taxol: 20 uM) in MDR1-expressing NIH-3T3 cells; conditions: mouse, nih3t3, 20 µM

- Activity [1]: is not an inhibitor [-]
Compound: COc1ccc(C[C@H](N)C(=O)N[C@H]2[C@@H](O)[C@H](n3cnc4c(N(C)C)ncnc43)O[C@@H]2CO)cc1 [PUROMYCIN]

- Activity [2]: is not an inhibitor [-]
Compound: COc1cc2nc(N3CCN(C(=O)c4ccco4)CC3)nc(N)c2cc1OC [PRAZOSIN]

Compound: CC[C@H]1/C=C/C=C/C[C@@H](C)[C@H](O)[C@@](C)(O)C(=O)[C@@H](C)[C@H](O)[C@@H](C)C(=O)[C@@H](C)[C@H](O)[C@@H](C)/C=C/C(=O)O[C@@H]2[C@H](C)[C@H](CC1)O[C@]1(CC[C@H](C)[C@H](C[C@@H](C)O)O1)[C@H]2C [OLIGOMYCIN]
- Activity [3]: is not an inhibitor [-]

- Activity [4]: is not an inhibitor [-]
Compound: CC[C@]1(O)C[C@H]2CN(CCc3c([nH]c4ccccc34)[C@@](C(=O)OC)(c3cc4c(cc3OC)N(C=O)[C@H]3[C@@](O)(C(=O)OC)[C@H](OC(C)=O)[C@]5(CC)C=CCN6CC[C@]43[C@@H]65)C2)C1 [VINCRISTINE]

- Activity [5]: is not an inhibitor [-]
Compound: CC(=O)O[C@H]1C(=O)[C@@]2(C)[C@H]([C@H](OC(=O)c3ccccc3)[C@]3(O)C[C@H](OC(=O)[C@H](O)[C@@H](NC(=O)c4ccccc4)c4ccccc4)C(C)=C1C3(C)C)[C@]1(OC(C)=O)CO[C@@H]1C[C@@H]2O [PACLITAXEL]
